One molecule from ChEMBL document CHEMBL3351728, “3-alkoxy-pyrrolo[1,2-b]pyrazolines as selective androgen receptor modulators with ideal physicochemical properties for transdermal administration” (J Med Chem, 2014) can be followed below.

Converted amounts (≈) assume the structure as drawn. The source made the active and inactive calls. The calls are words filed in the database; no cut-off is given here. Some results are limits rather than exact numbers.

Series [1] deals with T1, Androgen receptor (Homo sapiens) (UniProt P10275).
T1 sequence (whole entry): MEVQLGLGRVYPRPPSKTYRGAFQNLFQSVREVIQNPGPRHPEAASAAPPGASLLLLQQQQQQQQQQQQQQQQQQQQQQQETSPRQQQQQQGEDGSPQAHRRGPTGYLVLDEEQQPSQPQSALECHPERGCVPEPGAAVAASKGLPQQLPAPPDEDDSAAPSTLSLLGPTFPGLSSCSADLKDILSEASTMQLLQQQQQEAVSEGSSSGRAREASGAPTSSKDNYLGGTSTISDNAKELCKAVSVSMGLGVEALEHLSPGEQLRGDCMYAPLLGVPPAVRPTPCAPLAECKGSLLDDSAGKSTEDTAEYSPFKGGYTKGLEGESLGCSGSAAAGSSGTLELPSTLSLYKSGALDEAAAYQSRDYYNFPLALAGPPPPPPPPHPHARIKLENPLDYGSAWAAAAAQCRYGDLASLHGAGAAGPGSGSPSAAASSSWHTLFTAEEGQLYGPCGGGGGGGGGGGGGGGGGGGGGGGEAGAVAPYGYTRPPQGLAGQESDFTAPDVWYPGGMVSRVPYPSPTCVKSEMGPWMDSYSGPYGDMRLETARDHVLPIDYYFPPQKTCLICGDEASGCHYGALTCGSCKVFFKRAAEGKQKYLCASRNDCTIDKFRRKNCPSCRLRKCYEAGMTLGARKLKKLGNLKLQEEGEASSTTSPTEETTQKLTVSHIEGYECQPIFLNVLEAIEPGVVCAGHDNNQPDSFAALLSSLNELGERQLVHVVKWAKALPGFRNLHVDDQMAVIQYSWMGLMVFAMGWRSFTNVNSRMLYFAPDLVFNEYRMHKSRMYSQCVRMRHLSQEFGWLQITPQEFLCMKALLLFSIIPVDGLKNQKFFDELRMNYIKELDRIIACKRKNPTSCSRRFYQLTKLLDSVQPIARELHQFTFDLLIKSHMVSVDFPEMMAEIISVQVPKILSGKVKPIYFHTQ
Nature of the series: Agonist activity at human androgen receptor expressed in mouse C2C12 cells by androgen-specific response element-driven luciferase reporter gene assay relative to DHT. It is filed as cell-based. For orientation: A reporter such as luciferase makes a cellular process visible.

The nature of series [2]: Thermodynamic solubility of the compound at pH 7.4. The class given is physicochemical. The note with it: buffer, read-out: Therm_solubility.
Series [3] is described as follows: Lipophilicity, logP of the compound. The class given is physicochemical. The note with it: octanol/water.
The next series relates to Zone of skin. The series can be described thus: Skin permeability in human cadaver skin in Franz diffusion cell system. The class given is ADME.
Series [4] is described as follows: Skin permeability by silicone and isopropyl myristate (70:30) containing artificial membranes based skin PAMPA method. It is filed as ADME. (In general: In PAMPA a lipid-coated filter parts donor from acceptor wells.)
Series [5] is described as follows: Skin drug retention by silicone and isopropyl myristate (70:30) containing artificial membranes based skin PAMPA method.
In a further series the target is T2, Androgen receptor (Homo sapiens, UniProt P10275).
T2 sequence (P10275 whole entry): T1 sequence (whole entry)
Nature of the series: Displacement of [3H]DHT from androgen receptor in human MDA-MB-435 cells after 30 mins. The class given is cell-based.

In a further series the target is T3, Glucocorticoid receptor (Homo sapiens, UniProt P04150).
T3 sequence (P04150 whole entry): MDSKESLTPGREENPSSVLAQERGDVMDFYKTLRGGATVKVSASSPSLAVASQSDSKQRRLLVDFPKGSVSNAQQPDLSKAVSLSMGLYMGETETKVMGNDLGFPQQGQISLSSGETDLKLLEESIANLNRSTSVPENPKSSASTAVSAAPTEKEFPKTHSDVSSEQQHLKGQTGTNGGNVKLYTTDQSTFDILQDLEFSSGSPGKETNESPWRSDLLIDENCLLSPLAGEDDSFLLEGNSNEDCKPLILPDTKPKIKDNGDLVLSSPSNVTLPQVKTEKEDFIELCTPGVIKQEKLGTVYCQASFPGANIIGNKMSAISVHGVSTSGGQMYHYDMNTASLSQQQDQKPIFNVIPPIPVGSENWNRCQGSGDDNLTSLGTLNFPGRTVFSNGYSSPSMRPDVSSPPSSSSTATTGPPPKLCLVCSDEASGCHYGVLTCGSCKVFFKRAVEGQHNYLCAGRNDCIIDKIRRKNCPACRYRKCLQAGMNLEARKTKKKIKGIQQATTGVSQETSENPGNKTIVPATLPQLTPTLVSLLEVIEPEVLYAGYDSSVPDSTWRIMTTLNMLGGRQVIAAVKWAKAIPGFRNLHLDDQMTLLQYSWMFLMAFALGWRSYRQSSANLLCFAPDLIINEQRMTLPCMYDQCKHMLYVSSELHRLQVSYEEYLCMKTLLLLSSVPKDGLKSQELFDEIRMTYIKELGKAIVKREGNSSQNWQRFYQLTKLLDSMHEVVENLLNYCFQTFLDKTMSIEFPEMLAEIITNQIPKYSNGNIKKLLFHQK
Nature of the series: Binding affinity to glucocorticoid receptor (unknown origin) incubated for 4 hrs.

Series [6] is described as follows: Volume of distribution in Wistar rat at 1 mg/kg, iv. Also noted: dose 1 mg/kg, route intravenous. It is filed as ADME, organism-based. To be noted: in vivo.
Series [7] can be described thus: AUC (0 to infinity) in Wistar rat at 1 mg/kg, iv. The class given is ADME, organism-based. Also noted: dose 1 mg/kg, route intravenous, time infinity. The note with it: plasma.
The nature of series [8]: Tmax in Wistar rat at 0.5 mg/kg, sc. It is filed as ADME, organism-based. Also noted: dose 0.5 mg/kg, route subcutaneous. To be noted: in vivo.
The test system of series [9] is Rattus norvegicus. Nature of the series: Androgenic activity in orchidectomized rat assessed as stimulation of prostate weight treated at 0.3 mg/kg, sc once daily for 14 days by Hershberger assay. The class given is organism-based, Prostate gland. Also noted: dose 0.3 mg/kg, route subcutaneous. The note with it: in vivo, 336 h.
Series [10] is described as follows: Cmax in Wistar rat at 0.5 mg/kg, sc. The class given is ADME, organism-based. Details: dose 0.5 mg/kg, route subcutaneous. The note with it: in vivo.
The test system of series [11] is Rattus norvegicus. The series can be described thus: AUC (0 to 48 hrs) in Wistar rat at 0.5 mg/kg, sc. Details: time < 48 hr, dose 0.5 mg/kg, route subcutaneous. To be noted: in vivo. It is filed as ADME, organism-based, Plasma.
Series [12] relates to Rattus norvegicus. The series can be described thus: Bioavailability in Wistar rat at 0.5 mg/kg, sc. The class given is ADME, organism-based. To be noted: in vivo.
Series [13] has as its system Rattus norvegicus. The series can be described thus: Anabolic activity in orchidectomized rat assessed as stimulation of bulbocavernosus/levator ani muscle weight treated subcutaneously once daily for 14 days by Hershberger assay. The class given is functional.

Regarding `CO[C@@H]1C(c2ccc(C#N)c(Cl)c2C)=NN2CC[C@H](O)[C@@H]12`, the Emax (usually the maximal effect, on the per cent scale that the assay sets) in [1] came out at 97%. Also, the solubility thermodynamic in [2] was 1300 µg/mL (≈ 4.25 mM). Besides, the logP (as a rule, the decadic logarithm of the partition coefficient of the neutral form, usually between octanol and water) in series [3] was determined as 2. Moreover, the Jss in the series on Zone of skin came out at 2 ug/cm2.hr. Moreover, the permeability result in [4] was “permeable”. The Drug uptake result in series [5] is “inactive”. Moreover, the IC50 – broadly, the point on the concentration scale where inhibition reaches its midpoint – at Androgen receptor was 0.7 nM; at Glucocorticoid receptor, above 1000 nM. In addition, the Vd (as a rule, the apparent volume that relates the amount in the body to the concentration in plasma or blood) in [6] was 4.6 L/kg. Further, the AUC(0-inf) (in general, total exposure, with the tail of the curve extrapolated) in series [7] came out at 708 ng·h/mL. In addition, the Tmax (as a rule, the time at which the peak concentration occurs) in [8] is 1.5 h. In addition, the Activity entry was “Non-toxic” in the series with Rattus norvegicus [9] and “Dose-dependent effect” in the series on Rattus norvegicus [13]. In series [10], the Cmax – broadly, the maximum level reached in the sampled fluid or tissue – came to 79 ng/mL. In addition, in the series on Rattus norvegicus [11], the AUC – broadly, the area under the concentration-time curve, a measure of exposure – worked out at 670 ng·h/mL. In the series with Rattus norvegicus [12], this molecule displayed an F of 75%. Further, the ED50 – broadly, the dose at which the effect has come halfway, by size or by number of responders – with Rattus norvegicus [13] (sc, 336 h) came to 0.07 mg/kg.
